Source: article PMC9873282, “Design, synthesis and evaluation of quinoline-O-carbamate derivatives as multifunctional agents for the treatment of Alzheimer’s disease” (Journal of Enzyme Inhibition and Medicinal Chemistry, 2023)
Several values for one entry are separate records, joined by “and”; a condition that tells them apart may be missing. Identical values can stand only once. Like-named read-outs stand apart in the source and are kept apart here.

What was measured:
[1] = target: T1, eeAChE (Electrophorus electricus, UniProt O42275); assay: biochemical; set-up: species or system electric eel
T1 construct: eeAChE, from the electric eel; purchased Sigma Aldrich; host or cells: electric eel (natural source)
T1 sequence (O42275 24-633): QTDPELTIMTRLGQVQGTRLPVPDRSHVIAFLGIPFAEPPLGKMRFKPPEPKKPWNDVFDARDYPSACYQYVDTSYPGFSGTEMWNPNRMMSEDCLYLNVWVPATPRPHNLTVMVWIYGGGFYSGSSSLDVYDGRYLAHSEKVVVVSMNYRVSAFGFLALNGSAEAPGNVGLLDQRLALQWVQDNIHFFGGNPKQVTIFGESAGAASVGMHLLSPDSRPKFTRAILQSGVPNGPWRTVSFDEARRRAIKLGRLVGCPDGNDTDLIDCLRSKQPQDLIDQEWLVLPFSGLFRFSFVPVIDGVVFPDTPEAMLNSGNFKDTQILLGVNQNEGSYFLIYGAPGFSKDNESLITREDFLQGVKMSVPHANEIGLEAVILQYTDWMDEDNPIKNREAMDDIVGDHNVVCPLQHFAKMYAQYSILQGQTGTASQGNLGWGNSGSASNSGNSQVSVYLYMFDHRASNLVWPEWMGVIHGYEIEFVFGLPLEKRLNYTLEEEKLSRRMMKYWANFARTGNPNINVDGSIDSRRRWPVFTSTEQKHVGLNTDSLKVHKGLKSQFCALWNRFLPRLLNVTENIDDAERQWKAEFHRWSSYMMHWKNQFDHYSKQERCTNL
Description: (§1) The inhibitory activities of the synthesised compounds against eeAChE (from electric eel) and eqBuChE (from equine serum) were tested by the modified Ellman’s method[26]^,[27]. […] The determination of AChE and BuChE inhibitory potency of the synthesised compounds were evaluated by Ellman assay, the detailed procedure referred to our previous work[26]^,[27].

[2] = target: T2, eqBuChE (Equus caballus, UniProt P81908); assay: biochemical; set-up: species or system equine; settings: for IC50: BuChE from equine serum; for SI = IC50 (AChE)/IC50 (BuChE): eeAChE/eqBuChE; for inhibition at 25 µM: read-out: eqBuChE inhibition rate
T2 construct: eqBuChE, from equine serum; purchased Sigma Aldrich; host or cells: equine serum (natural source)
T2 sequence (P81908 whole entry): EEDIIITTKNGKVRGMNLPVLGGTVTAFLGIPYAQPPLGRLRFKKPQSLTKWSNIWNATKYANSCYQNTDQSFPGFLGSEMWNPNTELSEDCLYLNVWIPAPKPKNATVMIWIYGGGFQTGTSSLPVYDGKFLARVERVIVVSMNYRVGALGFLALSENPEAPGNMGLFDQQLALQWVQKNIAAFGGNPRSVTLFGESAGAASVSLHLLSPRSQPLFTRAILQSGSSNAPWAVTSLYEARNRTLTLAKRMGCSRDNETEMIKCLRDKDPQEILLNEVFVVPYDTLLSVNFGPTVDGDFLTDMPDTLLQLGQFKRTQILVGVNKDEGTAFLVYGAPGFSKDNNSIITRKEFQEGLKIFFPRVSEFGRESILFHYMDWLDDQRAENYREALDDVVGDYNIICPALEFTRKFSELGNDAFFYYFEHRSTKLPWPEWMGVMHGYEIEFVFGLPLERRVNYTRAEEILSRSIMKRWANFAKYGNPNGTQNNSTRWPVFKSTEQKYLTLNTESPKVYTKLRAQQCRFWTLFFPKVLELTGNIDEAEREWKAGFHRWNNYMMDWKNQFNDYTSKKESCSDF
Description: as §1

[3] = tested on: BV-2 cells; assay: Cytotoxicity on BV-2 cells (CCK8 assay); assay type: cell-based; settings: compounds at 2 µM
Description: (§2) Firstly, the cytotoxicity of compounds 3a, 3c, 3e, 3f, 3k, 3m and 3n were tested using CCK8 assay.
BV-2 cells were cultured in DMEM containing 10% foetal bovine serum, 100 U/mL penicillin, 100 U/mL streptomycin, and 1% nonessential amino acid at 37 °C with 5% CO2.
BV-2 cells in logarithmic growth stage were digested and centrifuged, and then resuspended in DMEM medium containing 1% penicillin-streptomycin and 10% foetal bovine serum. The cells was adjusted to 1.2 × 10^4 cells/well, and then seeded evenly in 96-well cell culture plates. The cells were incubated for 36 h at 37 °C with 5% CO2. After incubation, the cells were added to different concentrations (10 and 2 µM) of tested compounds, and incubated for 24 h at 37 °C with 5% CO2. Then, 10 µL CCK-8 solution was added to each well, and incubated for another 1 h at 37 °C with 5% CO2. The OD values were tested at […]. The cell viability (%) = {(ODdrug−ODblank)}/{(ODcontrol−ODblank)} × 100%.

[4] = tested on: IL-6; assay: IL-6 production in LPS-stimulated BV-2 cells (ELISA); assay type: cell-based; settings: 1 µM and 2 µM; 1 µg/mL LPS 24 h
Description: as §2
(§3) BV-2 cells (2 × 10^5 cells/well) were seeded in a 24-well cell culture plates. The cells were divided into blank control group, model group (1 µg/mL LPS), LPS + 2 µM compound group, LPS + 1 µM compound group. Each drug group was pre-treated with corresponding concentration of drug solution for 8 h. After 8 h, the culture medium was aspirated out. Except for the blank control group, which was added with DMEM medium, the other groups were stimulated with 1 µg/mL LPS for 24 h. Then cell supernatant was aspirated and centrifuged at 3000 rpm for 3 min. The content of NO in cell culture supernatant was determined by Griess method, and the levels of cytokines IL-6 and IL-1β in cell culture supernatant were determined by IL-6 ELISA kit and IL-1β ELISA kit, respectively.

[5] = tested on: IL-1β; assay: IL-1β production in LPS-stimulated BV-2 cells (ELISA); assay type: cell-based; settings: 1 µg/mL LPS 24 h
Description: as §2, §3

[6] = tested on: NO; assay: NO release in LPS-stimulated BV-2 cells (Griess method); assay type: cell-based; settings: 1 µg/mL LPS 24 h
Description: as §2, §3

[7] = tested on: PC12 cells; assay: Cytotoxicity on PC12 cells; assay type: cell-based; settings: at concentration below 40 µM
Description: (§4) The neuroprotective effect of compounds 3a, 3c, 3e, 3f, 3k, 3m, and 3n on Aβ25–35-induced PC12 cells injury were evaluated using CCK-8 assay. […] Furthermore, as shown in Figure 12(B), when PC12 cells were exposed to 25 µM Aβ25-35, the cell viability sharply declined to 57.3% (p < 0.01) compared with untreated group.
(§5) The PC12 cells during the logarithmic growth phase were digested and centrifuged with pancreatic enzyme solution, the cells were resuspended by adding the prepared media solution, and piped evenly with a pipette to seed in a 96-well cell culture plate (cell concentration adjusted to 2.0 × 10^4 cell·mL^−1). Each well was added 100 µL complete medium was added to each well and incubated at 37 °C and 5% CO2 for 24 h.

[8] = tested on: Aβ25-35-induced PC12 cells injury; assay: Neuroprotective effect on Aβ25-35-induced PC12 cells injury (CCK-8); assay type: cell-based; settings: 25 µM Aβ25-35; model cell viability 57.3%
Description: as §4
• Preparation of Aβ25-35 aggregation. Aβ25-35 was purchased from sigma. 1 mg Aβ25-35 was dissolved in 943 µL of sterilised deionised water to obtain 1 mM stock solution, aliquoted, –20 °C preservation. Removing the appropriate volume in a 48-well plate and incubated in a 37 °C incubator for two days to allow its ageing to accumulate and produce neurotoxicity. After aggregation was completed, the solution was diluted with PBS to get 25 µM solution of Aβ25-35 aggregation. • Neuroprotective effects of compounds on Aβ25-35-induced PC12 cells injury
as §5
After incubation for 24 h, PC12 cells were divided into blank group, control group, Aβ25-35 model group and tested compounds group (5, 10, 20 µM). Then the original medium was discarded, and 100 µL new complete medium were added to PC12 cells, and the tested compounds group was added to 100 µL complete medium containing different concentrations (5, 10, and 20 µM) of tested compounds, incubated for 2 h at 37 °C, 5% CO2 conditions. After incubation for 2 h, 10 µL Aβ25-35 solution was added to the tested compounds groups and model group (the final concentration of Aβ25-35 was 25 µM), and incubated for 24 h at 37 °C, 5% CO2 conditions, 10 µL CCK-8 was added to each well and further incubated for 1 h at 37 °C and 5% CO2. Finally, the OD value was measured at 450 nm using a microplate reader, and each concentration set three wells. The cell survival rate (%) was determined according to the following formula: cell viability (%) = {(ODdrug−ODblank)}/{(ODcontrol−ODblank)}.

[9] = target: T3, hAChE (Homo sapiens, UniProt P22303); assay: biochemical
T3 construct: hAChE, from human erythrocytes AChE; purchased Sigma Aldrich; host or cells: human erythrocytes (natural source)
T3 sequence (P22303 32-617 isoform P22303-2 limits assumed): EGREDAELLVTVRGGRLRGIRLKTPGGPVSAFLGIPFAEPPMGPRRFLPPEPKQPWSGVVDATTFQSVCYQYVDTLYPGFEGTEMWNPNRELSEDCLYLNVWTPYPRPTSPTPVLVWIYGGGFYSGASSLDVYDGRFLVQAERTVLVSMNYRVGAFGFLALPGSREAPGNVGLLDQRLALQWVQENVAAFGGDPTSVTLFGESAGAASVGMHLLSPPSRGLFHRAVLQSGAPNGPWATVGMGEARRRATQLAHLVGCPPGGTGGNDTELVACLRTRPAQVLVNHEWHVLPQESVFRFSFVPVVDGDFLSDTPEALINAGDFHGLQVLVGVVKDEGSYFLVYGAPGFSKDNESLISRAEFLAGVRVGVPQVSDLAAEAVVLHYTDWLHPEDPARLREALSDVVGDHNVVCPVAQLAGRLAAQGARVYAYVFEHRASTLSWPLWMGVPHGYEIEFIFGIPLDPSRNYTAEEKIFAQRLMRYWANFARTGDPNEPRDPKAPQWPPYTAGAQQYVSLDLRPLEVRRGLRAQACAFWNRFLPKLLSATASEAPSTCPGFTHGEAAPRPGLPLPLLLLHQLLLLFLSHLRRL
Description: (§6) Acetylcholinesterase (eeAChE, from the electric eel; hAChE, from human erythrocytes AChE), butyrylcholinesterase (eqBuChE, from equine serum; hBuChE, human serum BuChE), 5,5′-dithiobis-2-nitrobenzoic acid (Ellman’s reagent, DTNB), acetylthiocholine chloride (ATC), and butyrylthiocholine chloride (BTC) were purchased form Sigma Aldrich. The determination of AChE and BuChE inhibitory potency of the synthesised compounds were evaluated by Ellman assay, the detailed procedure referred to our previous work[26]^,[27].

[10] = target: T4, hBuChE (Homo sapiens, UniProt P06276); assay: biochemical; settings: for IC50: from human serum; for SI = IC50 (AChE)/IC50 (BuChE): hAChE/hBuChE
T4 construct: hBuChE, human serum BuChE; purchased Sigma Aldrich; host or cells: human serum (natural source)
T4 sequence (P06276 29-602): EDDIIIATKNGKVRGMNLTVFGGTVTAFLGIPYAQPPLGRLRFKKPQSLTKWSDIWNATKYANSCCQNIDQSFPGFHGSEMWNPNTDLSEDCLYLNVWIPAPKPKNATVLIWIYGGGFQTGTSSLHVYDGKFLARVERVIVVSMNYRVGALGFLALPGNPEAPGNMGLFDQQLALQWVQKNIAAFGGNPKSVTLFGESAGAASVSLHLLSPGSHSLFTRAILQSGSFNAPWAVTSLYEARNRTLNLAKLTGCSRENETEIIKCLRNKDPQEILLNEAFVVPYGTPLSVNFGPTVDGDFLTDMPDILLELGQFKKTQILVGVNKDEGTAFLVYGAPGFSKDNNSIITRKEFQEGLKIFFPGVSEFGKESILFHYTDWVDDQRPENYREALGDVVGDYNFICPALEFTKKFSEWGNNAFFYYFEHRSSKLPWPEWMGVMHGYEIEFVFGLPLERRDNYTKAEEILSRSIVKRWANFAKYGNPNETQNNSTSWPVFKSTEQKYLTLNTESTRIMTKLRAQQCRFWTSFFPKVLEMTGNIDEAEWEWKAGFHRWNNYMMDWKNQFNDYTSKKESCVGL
Description: as §6

[11] = tested on: ACh; assay: ACh level in AlCl3-induced zebrafish AD model tissue; assay type: in vivo; settings: 8 µM; model 7.3, untreated 13.9 pmol/L
Source text: . After the behavioural experiments, the 168hpf zebrafish were killed and ground, the tissue were used to test the AChE activity and ACh levels. […] .

[12] = AChE from electric eel, read-out: IC50 ± SD eeAChE
[13] = from human erythrocytes, read-out: IC50 ± SD hAChE

Row | SMILES | IC50 [1] | IC50 ([2]; IC50 ± SD eqBuChE) | SI = IC50 (AChE)/IC50 (BuChE) [2] | cell viability of BV-2 cells [3] | levels of IL-6 compared with model group [4] | levels of IL-1β compared with model group [5] | release volume of NO [6] | cytotoxicity on PC12 cells [7] | neuroprotective effect on Aβ25-35-induced PC12 cells injury [8] | IC50 [1, 12] | IC50 ([2]; read-out: IC50 ± SD eqBuChE) | IC50 [9, 13] | IC50 ([10]; read-out: IC50 ± SD hBuChE) | SI = IC50 (AChE)/IC50 (BuChE) [10] | IC50 [9] | IC50 ([10]; IC50 ± SD hBuChE) | inhibition at 25 µM [2] | inhibition at 25 µM ([2]; at 25 μM of compounds) | ACh activity (level) [11]
1 | CN(C)C(=O)Oc1ccnc2ccccc12 [Compound 3a, Quinolin-4-yl dimethylcarbamate] | 10.8 ± 0.33 µM | 2830 nM and 2800 nM | 3.8 | did not show obvious change | significantly decreased | did not obviously decrease | significantly decreased | did not show any cytotoxicity | did not show significant neuroprotective effects | – | – | – | – | – | – | – | – | – | –
2 | CCN(CC)C(=O)Oc1ccnc2ccccc12 [Compound 3b, Quinolin-4-yl diethylcarbamate] | – | – | 11.5 | – | – | – | – | – | – | 12.7 ± 0.13 µM | 1060 nM and 1100 nM | 30.2 ± 0.61 µM | 5.39 µM and 5.4 µM | 5.6 | – | – | – | – | –
3 | CCN(C)C(=O)Oc1ccnc2ccccc12 [Compound 3c, Quinolin-4-yl ethyl(methyl)carbamate] | 13.2 ± 0.51 µM | 1920 nM and 1900 nM | 6.9 | did not show obvious change | significantly decreased | did not obviously decrease | significantly decreased | did not show any cytotoxicity | did not show significant neuroprotective effects | – | – | – | – | – | – | – | – | – | –
4 | O=C(Oc1ccnc2ccccc12)N1CCOCC1 [Compound 3d, Quinolin-4-yl morpholine-4-carboxylate] | – | – | 18.0 | – | – | – | – | – | – | 15.7 ± 0.27 µM | 870 ± 50 nM | 26.9 ± 0.74 µM | 9.46 µM and 9.5 µM | 2.8 | – | – | – | – | –
5 | CN(C)C(=O)Oc1cccc2ncccc12 [Compound 3e, Quinolin-5-yl dimethylcarbamate] | 4.5 ± 0.04 µM | 940 ± 70 nM | 4.8 | did not show obvious change | significantly decreased | significantly decreased | significantly decreased | did not show any cytotoxicity | remarkable neuroprotective effects at 5 and 10 µM | – | – | – | – | 2.8 | 10.4 ± 0.21 µM | 3.7 ± 0.05 µM | – | – | –
6 | CCN(C)C(=O)Oc1ccc2ncccc2c1 [Compound 3k, Quinolin-6-yl ethyl(methyl)carbamate] | 10.3 ± 0.58 µM | – | – | did not show obvious change | significantly decreased | significantly decreased | significantly decreased | did not show any cytotoxicity | significant neuroprotective effects at 10 µM | – | – | – | – | – | – | – | 5.8 ± 0.03% | – | –
7 | CN(C)C(=O)Oc1cccc2cccnc12 [Compound 3m, Quinolin-8-yl dimethylcarbamate] | 6.5 ± 0.05 µM | – | – | did not show obvious change | significantly decreased | did not obviously decrease | significantly decreased | did not show any cytotoxicity | significant neuroprotective effects at 5 and 10 µM | – | – | – | – | – | – | – | 7.3 ± 0.05% | – | –
8 | CCN(CC)C(=O)Oc1cccc2cccnc12 [Compound 3n, Quinolin-8-yl diethylcarbamate] | – | – | – | did not show obvious change | significantly decreased | did not obviously decrease | significantly decreased | did not show any cytotoxicity | significant neuroprotective effects at 5 and 10 µM | 9.7 ± 0.07 µM | – | – | – | – | – | – | – | 2.4 ± 0.01% | –
9 | COc1cc2c(cc1OC)C(=O)C(CC1CCN(Cc3ccccc3)CC1)C2 (stereo not shown) [Donepezil, reference compound] | – | – | – | – | – | – | – | – | – | – | – | – | – | – | – | – | – | – | 14.0 pmol/L
